Measured values from US11596639B2, “Substituted indole Mcl-1 inhibitors” (Vanderbilt University, priority 2016, dated 2023).
Where two headings read alike, the source gives them in different places.

How the values were obtained:
[1] = tested on: H929 human cancer cell lines; test: Cellular viability / proliferation (Cell TiterGlo, 72 h); assay type: cell-based
Summary of the method: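 Plating is at 1,000 cells/well in 10% FBS medium; after 24 h, compound is added as a 2-fold series starting at 50 μM with under 1% DMSO.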

Mcl-1 = Mcl-1 (Homo sapiens (Human), UniProt Q07820); test: Fluorescence polarization anisotropy (FPA) competition assay, FITC-Bak or FITC-Bim BH3 peptide; assay type: binding; settings: read-out: Ki for Inhibition of Mcl-1 by FPA assay
[2] = Homo sapiens, NCI-H929, 72 h, read-out: GI50 on cellular proliferation of H929 human cancer cell lines, H929 cells, 72 h, Cell TiterGlo, 10% FBS
[3] = H929 cells, 72 h, Cell TiterGlo, 10% FBS, read-out: GI50 on cellular proliferation of H929 human cancer cell lines

Mcl-1, sequence (Q07820 172-327): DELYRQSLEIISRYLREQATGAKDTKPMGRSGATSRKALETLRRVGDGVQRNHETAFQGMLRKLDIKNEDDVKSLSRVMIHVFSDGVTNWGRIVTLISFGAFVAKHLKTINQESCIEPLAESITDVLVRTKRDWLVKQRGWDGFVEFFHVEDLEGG

Compound | GI50 [1, 2] [nM] | Ki (Mcl-1) [nM] | GI50 [1, 3] [nM]
Cc1cc(OCCCc2c3n(c4c(-c5c(C)nn(C)c5C)c(Cl)ccc24)[C@H](C)CN(c2cn(C)c4ccc(S(=O)(=O)N5CCN(C)CC5)cc24)C3=O)cc(C)c1Cl [Example 274, (R)-7-chloro-10-(3-(4-chloro-3,5-dimethylphenoxy)propyl)-4-methyl-2-(1-methyl-5-((4-methylpiperazin-1-yl)sulfonyl)-1H-indol-3-yl)-6-(1,3,5-trimethyl-1H-pyrazol-4-yl)-3,4-dihydropyrazino[1,2-a]indol-1(2H)-one] | 2200 | 4.8 | 
Cc1cc(OCCCc2c3n(c4c(-c5c(C)ncnc5C)c(Cl)ccc24)[C@H](C)CN(c2ccc(C(=O)O)c4cccnc24)C3=O)cc(C)c1Cl [Example 224, 8-[(4R)-7-chloro-10-[3-(4-chloro-3,5-dimethyl-phenoxy)propyl]-6-(4,6-dimethylpyrimidin-5-yl)-4-methyl-1-oxo-3,4-dihydropyrazino[1,2-a]indol-2-yl]quinoline-5-carboxylic acid] | 2500 | < 1 | 
Cc1cc(OCCCc2c3n(c4c(-c5c(C)nn(C)c5C)c(Cl)ccc24)[C@H](C)CN(c2cn(C)c4ccc([N+](=O)[O-])cc24)C3=O)cc(C)c1Cl [Example 223, (4R)-7-chloro-10-[3-(4-chloro-3,5-dimethyl-phenoxy)propyl]-4-methyl-2-(1-methyl-5-nitro-indol-3-yl)-6-(1,3,5-trimethylpyrazol-4-yl)-3,4-dihydropyrazino[1,2-a]indol-1-one] | 5000 | 1.1 | 
CCCn1cc(N2C[C@@H](C)n3c(c(CCCOc4cc(C)c(Cl)c(C)c4)c4ccc(Cl)c(-c5c(C)nn(C)c5C)c43)C2=O)c2cc(C(=O)O)ccc21 [Example 158, (R)-3-(7-Chloro-10-(3-(4-chloro-3,5-dimethylphenoxy)propyl)-4-methyl-1-oxo-6-(1,3,5-trimethyl-1H-pyrazol-4-yl)-3,4-dihydropyrazino[1,2-a]indol-2(1H)-yl)-1-propyl-1H-indole-5-carboxylic acid] | 480 | < 1 | 
CCn1ncc2c(C(=O)O)cc(N3CCCn4c(c(CCCOc5cc(C)c(Cl)c(C)c5)c5ccc(Cl)c(-c6c(C)nn(C)c6C)c54)C3=O)cc21 [Example 39, 6-[8-chloro-11-[3-(4-chloro-3,5-dimethyl-phenoxy)propyl]-1-oxo-7-(1,3,5-trimethylpyrazol-4-yl)-4,5-dihydro-3H-[1,4]diazepino[1,2-a]indol-2-yl]-1-ethyl-indazole-4-carboxylic acid] | 920 | 1.1 | 
Cc1cc(OCCCc2c3n(c4c(-c5c(C)nn(C)c5C)c(Cl)ccc24)[C@H](C)CN(c2cccc4c(Cl)cc(C(=O)O)nc24)C3=O)cc(C)c1Cl [Example 230, (R)-4-Chloro-8-(7-chloro-10-(3-(4-chloro-3,5-dimethylphenoxy)propyl)-4-methyl-1-oxo-6-(1,3,5-trimethyl-1H-pyrazol-4-yl)-3,4-dihydropyrazino[1,2-a]indol-2(1H)-yl)quinoline-2-carboxylic acid] | 890 | < 1 | 
Cc1cc(OCCCc2c3n(c4c(-c5c(C)nn(C)c5C)c(Cl)ccc24)[C@H](C)CN(c2nn(C)c4c(C(=O)O)cccc24)C3=O)cc(C)c1Cl [Example 165, (R)-3-(7-Chloro-10-(3-(4-chloro-3,5-dimethylphenoxy)propyl)-4-methyl-1-oxo-6-(1,3,5-trimethyl-1H-pyrazol-4-yl)-3,4-dihydropyrazino[1,2-a]indol-2(1H)-yl)-1-methyl-1H-indazole-7-carboxylic acid] | 1200 | 1 | 
Cc1cc(OCCCc2c3n(c4c(-c5c(C)nn(C)c5C)c(Cl)ccc24)CCCN(c2cc(C(=O)O)cc4nn(CCN(C)C)cc24)C3=O)cc(C)c1Cl [Example 28, 4-[8-chloro-11-[3-(4-chloro-3,5-dimethyl-phenoxy)propyl]-1-oxo-7-(1,3,5-trimethylpyrazol-4-yl)-4,5-dihydro-3H-[1,4]diazepino[1,2-a]indol-2-yl]-2-[2-(dimethylamino)ethyl]indazole-6-carboxylic acid] | 3700 | 1.8 | 
COC(=O)c1ccc2c(c1)c(N1C[C@@H](C)n3c(c(CCCOc4cc(C)c(Cl)c(C)c4)c4ccc(Cl)c(-c5c(C)nn(C)c5C)c43)C1=O)cn2C (single isomer, unassigned) [Example 204] | 1000 | 1.1 | 
Cc1cc(N2C[C@@H](C)n3c(c(CCCOc4cc(C)c(Cl)c(C)c4)c4ccc(Cl)c(-c5c(C)nn(C)c5C)c43)C2=O)c2cc(C(=O)O)n(C)c2c1 [Example 317, (R)-4-(7-Chloro-10-(3-(4-chloro-3,5-dimethylphenoxy)propyl)-4-methyl-1-oxo-6-(1,3,5-trimethyl-1H-pyrazol-4-yl)-3,4-dihydropyrazino[1,2-a]indol-2(1H)-yl)-1,6-dimethyl-1H-indole-2-carboxylic acid] | 720 | < 1 | 
COCCOc1cc(N2C[C@@H](C)n3c(c(CCCOc4cc(C)c(Cl)c(C)c4)c4ccc(Cl)c(-c5c(C)nn(C)c5C)c43)C2=O)c2c(c1)cc(C(=O)O)n2C [Example 461, (R)-7-(7-Chloro-10-(3-(4-chloro-3,5-dimethylphenoxy)propyl)-4-methyl-1-oxo-6-(1,3,5-trimethyl-1H-pyrazol-4-yl)-3,4-dihydropyrazino[1,2-a]indol-2(1H)-yl)-5-(2-methoxyethoxy)-1-methyl-1H-indole-2-carboxylic acid] | < 200 | < 1 | 
Cc1cc(OCCCc2c3n(c4c(-c5c(C)nn(C)c5C)c(Cl)ccc24)[C@H](C)CN(c2ccc4cc(C(=O)O)ccc4c2)C3=O)cc(C)c1Cl [Example 185, (R)-6-(7-Chloro-10-(3-(4-chloro-3,5-dimethylphenoxy)propyl)-4-methyl-1-oxo-6-(1,3,5-trimethyl-1H-pyrazol-4-yl)-3,4-dihydropyrazino[1,2-a]indol-2(1H)-yl)-2-naphthoic acid] | 2900 | 4.6 | 
Cc1cc(OCCCc2c3n(c4c(-c5c(C)nn(C)c5C)c(Cl)ccc24)[C@H](C)CN(c2cccc4ccc(C(=O)O)cc24)C3=O)cc(C)c1Cl [Example 349, (M, R)-8-(7-Chloro-10-(3-(4-chloro-3,5-dimethylphenoxy)propyl)-4-methyl-1-oxo-6-(1,3,5-trimethyl-1H-pyrazol-4-yl)-3,4-dihydropyrazino[1,2-a]indol-2(1H)-yl)-2-naphthoic acid] |  | 2.8 | 780
COCCn1c(C(=O)O)cc2cc(C)cc(N3C[C@@H](C)n4c(c(CCCOc5cc(C)c(Cl)c(C)c5)c5ccc(Cl)c(-c6c(C)nn(C)c6C)c54)C3=O)c21 [Example 470, (R)-7-(7-Chloro-10-(3-(4-chloro-3,5-dimethylphenoxy)propyl)-4-methyl-1-oxo-6-(1,3,5-trimethyl-1H-pyrazol-4-yl)-3,4-dihydropyrazino[1,2-a]indol-2(1H)-yl)-1-(2-methoxyethyl)-5-methyl-1H-indole-2-carboxylic acid] | < 200 | < 1 | 
Cc1cc(OCCCc2c3n(c4c(-c5c(C)nn(C)c5C)c(Cl)ccc24)CCCN(c2nc(C(=O)O)n[nH]2)C3=O)cc(C)c1Cl [Example 37, 5-(8-Chloro-11-(3-(4-chloro-3,5-dimethylphenoxy)propyl)-1-oxo-7-(1,3,5-trimethyl-1H-pyrazol-4-yl)-4,5-dihydro-1H-[1,4]diazepino[1,2-a]indol-2(3H)-yl)-1H-1,2,4-triazole-3-carboxylic acid] | 1800 | 3 | 
Cc1cc(OCCCc2c3n(c4c(-c5c(C)nn(C)c5C)c(Cl)ccc24)[C@H](C)CN(c2cn(C)c4ccc(-c5cn6c(n5)CCC6)cc24)C3=O)cc(C)c1Cl [Example 419, (R)-7-Chloro-10-(3-(4-chloro-3,5-dimethylphenoxy)propyl)-2-(5-(6,7-dihydro-5H-pyrrolo[1,2-a]imidazol-2-yl)-1-methyl-1H-indol-3-yl)-4-methyl-6-(1,3,5-trimethyl-1H-pyrazol-4-yl)-3,4-dihydropyrazino[1,2-a]indol-1(2H)-one] |  | 2.3 | 1100
Cc1cc(OCCCc2c3n(c4c(-c5c(C)nn(C)c5C)c(Cl)ccc24)[C@H](C)CN(c2cn(C)c4ccc(-c5noc(=O)[nH]5)cc24)C3=O)cc(C)c1Cl [Example 442, (R)-3-(3-(7-Chloro-10-(3-(4-chloro-3,5-dimethylphenoxy)propyl)-4-methyl-1-oxo-6-(1,3,5-trimethyl-1H-pyrazol-4-yl)-3,4-dihydropyrazino[1,2-a]indol-2(1H)-yl)-1-methyl-1H-indol-5-yl)-1,2,4-oxadiazol-5(4H)-one] | 230 | 2.3 | 
Cc1cc(OCCCc2c3n(c4c(-c5c(C)nn(C)c5C)c(Cl)ccc24)[C@H](C)CN(c2cn(C)c4ccc(C(=O)O)cc24)C3=O)ccc1Cl [Example 407, (R)-3-(7-Chloro-10-(3-(4-chloro-3-methylphenoxy)propyl)-4-methyl-1-oxo-6-(1,3,5-trimethyl-1H-pyrazol-4-yl)-3,4-dihydropyrazino[1,2-a]indol-2(1H)-yl)-1-methyl-1H-indole-5-carboxylic acid] | 490 | 1.1 | 
Cc1cc(OCCCc2c3n(c4c(-c5c(C)nn(C)c5C)c(Cl)ccc24)[C@H](C)CN(c2cccc4cc(C(=O)O)n(CC5COC5)c24)C3=O)cc(C)c1Cl [Example 383, (R)-7-(7-Chloro-10-(3-(4-chloro-3,5-dimethylphenoxy)propyl)-4-methyl-1-oxo-6-(1,3,5-trimethyl-1H-pyrazol-4-yl)-3,4-dihydropyrazino[1,2-a]indol-2(1H)-yl)-1-(oxetan-3-ylmethyl)-1H-indole-2-carboxylic acid] | 1500 | 2.6 | 
